Common to all, as to format: functional
The subject of assay [1] is Staphylococcus aureus. Briefly: Antibacterial activity against Staphylococcus aureus SG 511 after 24 hrs by two fold serial dilution method. The settings on record: SG 511, 24 h.
The test system of assay [2] is Staphylococcus aureus. Briefly: Antibacterial activity against methicillin resistant Staphylococcus aureus 3089 after 24 hrs by two fold serial dilution method. The settings on record: Staphylococcus aureus, 3089, 24 h.
Another assay relates to Escherichia coli. Briefly: Antibacterial activity against multidrug resistant Escherichia coli 1137 after 24 hrs by two fold serial dilution method.
A further assay has as its system Enterococcus faecalis. Briefly: Antibacterial activity against multidrug resistant Enterococcus faecalis 5210 after 24 hrs by two fold serial dilution method.
Where [3] appears, read: Enterococcus faecalis, 5210, 24 h.

In brackets after ≈: the same amount, converted by molar mass. A value given as a limit tells only on which side of the number the result lay.

Usually MIC stands for the lowest concentration found to suppress growth. A lower MIC goes with a more susceptible organism. The compound `CN(C)[C@@H]1C(O)=C(C(N)=O)C(=O)[C@@]2(O)C(O)=C3C(=O)c4c(O)cccc4[C@@](C)(O)[C@H]3C[C@@H]12` [TETRACYCLINE] gave an MIC against Staphylococcus aureus [1] of 0.16 µg/mL (≈ 0.36 µM).
As for `CCn1cc(C(=O)O)c(=O)c2cc(F)c(N3CCNCC3)cc21` [NORFLOXACIN], the minimum inhibitory concentration (MIC) was greater than 40 µg/mL with Staphylococcus aureus [2] and 1.25 µg/mL (≈ 3.91 µM) in the assay on Escherichia coli (Escherichia coli, 1137, 24 h).
For the compound `O=c1[nH]cc(-c2c[nH]c3cc(Br)ccc23)nc1-c1c[nH]c2cc(Br)ccc12`, the MIC was 20 µg/mL (≈ 41.3 µM) against Staphylococcus aureus [2]; 20 µg/mL (≈ 41.3 µM) against Enterococcus faecalis (setting [3]); 10 µg/mL (≈ 20.7 µM) in the assay on Staphylococcus aureus [1]; greater than 40 µg/mL against Escherichia coli (Escherichia coli, 1137, 24 h).
With `O=c1[nH]cc(-c2c[nH]c3ccccc23)nc1-c1c[nH]c2cc(Br)ccc12`, the MIC is 20 µg/mL (≈ 49.4 µM) in the assay on Staphylococcus aureus [2]; greater than 40 µg/mL in the assay on Enterococcus faecalis (setting [3]); 2.5 µg/mL (≈ 6.17 µM) with Staphylococcus aureus [1]; greater than 40 µg/mL in the assay on Escherichia coli (Escherichia coli, 1137, 24 h).
For `CN[C@H](CC(C)C)C(=O)N[C@H]1C(=O)N[C@@H](CC(N)=O)C(=O)N[C@H]2C(=O)N[C@H]3C(=O)N[C@H](C(=O)N[C@H](C(=O)O)c4cc(O)cc(O)c4-c4cc3ccc4O)[C@H](O)c3ccc(c(Cl)c3)Oc3cc2cc(c3O[C@@H]2O[C@H](CO)[C@@H](O)[C@H](O)[C@H]2O[C@H]2C[C@](C)(N)[C@H](O)[C@H](C)O2)Oc2ccc(cc2Cl)[C@H]1O` [VANCOMYCIN], the MIC against Staphylococcus aureus [2] came to 1.25 µg/mL (≈ 0.863 µM); with Enterococcus faecalis (setting [3]), 2.5 µg/mL (≈ 1.73 µM).
Consider `O=C1NC[C@@H](c2c[nH]c3cc(Br)ccc23)N[C@H]1c1c[nH]c2cc(Br)ccc12` [CIS-3,4-DIHYDROHAMACANTHIN B], for which the MIC is 20 µg/mL (≈ 41 µM) with Staphylococcus aureus [2]; 40 µg/mL (≈ 81.9 µM) in the assay with Enterococcus faecalis (setting [3]); 10 µg/mL (≈ 20.5 µM) in the assay on Staphylococcus aureus [1]; greater than 40 µg/mL in the assay on Escherichia coli (Escherichia coli, 1137, 24 h).
For `O=C(NCC(=O)c1c[nH]c2ccccc12)C(=O)c1c[nH]c2cc(Br)ccc12`, in that order: greater than 40 µg/mL, greater than 40 µg/mL, greater than 40 µg/mL and greater than 40 µg/mL.
As to GENTAMICIN, the MIC against Enterococcus faecalis and in the assay with Escherichia coli was greater than 40 µg/mL each time.
`O=C1NC[C@H](c2c[nH]c3ccccc23)N[C@@H]1c1c[nH]c2cc(Br)ccc12`: the MIC is greater than 40 µg/mL against Staphylococcus aureus [2]; greater than 40 µg/mL against Enterococcus faecalis (setting [3]); 20 µg/mL (≈ 48.9 µM) against Staphylococcus aureus [1]; greater than 40 µg/mL in the assay on Escherichia coli (Escherichia coli, 1137, 24 h).
`O=C1NC[C@H](c2c[nH]c3cc(Br)ccc23)N[C@@H]1c1c[nH]c2cc(Br)ccc12`: the MIC against Staphylococcus aureus [2] was 40 µg/mL (≈ 81.9 µM); against Enterococcus faecalis (setting [3]) it was greater than 40 µg/mL; against Staphylococcus aureus [1], 20 µg/mL (≈ 41 µM); against Escherichia coli (Escherichia coli, 1137, 24 h), greater than 40 µg/mL.
As for `O=C1NC[C@@H](c2c[nH]c3ccccc23)N[C@H]1c1c[nH]c2cc(Br)ccc12`, the MIC in the assay on Staphylococcus aureus [2] is greater than 40 µg/mL; in the assay on Enterococcus faecalis (setting [3]), greater than 40 µg/mL; in the assay on Staphylococcus aureus [1] it was 40 µg/mL (≈ 97.7 µM); in the assay on Escherichia coli (Escherichia coli, 1137, 24 h), greater than 40 µg/mL.
In the case of `O=C(NCC(=O)c1c[nH]c2cc(Br)ccc12)C(=O)c1c[nH]c2cc(Br)ccc12`, the MIC against Staphylococcus aureus [2] is greater than 40 µg/mL; in the assay on Enterococcus faecalis (setting [3]), greater than 40 µg/mL; in the assay with Staphylococcus aureus [1] it was greater than 40 µg/mL; against Escherichia coli (Escherichia coli, 1137, 24 h) it was greater than 40 µg/mL.

Source of the values: ChEMBL document CHEMBL4428104, “Synthesis and antibacterial evaluation of hamacanthin B analogues” (2016).
